In the oligonucleotide strings, read from the 5' end, every base follows the letter of its sugar. An asterisk marks phosphorothioate; unmarked linkages are phosphodiester. Other units and linkages are bracketed, terminal groups are in braces. A string of capitals states the bases alone. e = 2'-O-(2-methoxyethyl) (MOE); [5mC] = 5-methylcytosine; d = 2'-deoxy (DNA)
System: IL-12 mRNA
Assay: IL-12 mRNA in LPS-activated primary murine macrophages
Type: cell-based, mouse
Conditions: for IL-12 mRNA expression, −IFN % UTC: 300 nM oligomeric compound and LPS, no IFN-gamma pretreatment, single experiment; for IL-12 mRNA expression, −IFN % UTC / IL-12 mRNA expression, +IFN % UTC: normalized to LPS-treated cells without oligomeric compound; for IL-12 mRNA expression, +IFN % UTC: 300 nM oligomeric compound, stimulation with IFN-gamma and LPS, average of 2 experiments; for IL-12 mRNA expression, % UTC: LPS, average of 3 treatments

| Substance | IL-12 mRNA expression, −IFN % UTC [% UTC] | IL-12 mRNA expression, +IFN % UTC [% UTC] | other results |
| --- | --- | --- | --- |
| 327959 (antisense e[5mC]*eA*eG*e[5mC]*e[5mC]*eG*e[5mC]*eT*eG*eT*e[5mC]*eA*e[5mC]*eA*e[5mC]*eG*e[5mC]*eA*e[5mC]*eA*eG) [compound 327959] | 183 | 20 |  |
| 327971 (antisense eG*eG*eA*eA*eA*eT*e[5mC]*e[5mC]*e[5mC]*eT*eG*eG*e[5mC]*eA*eA*eT*eG*eT*eG*eA*eT) [compound 327971] | 146 | 17 |  |
| 327958 (antisense e[5mC]*e[5mC]*eG*eG*e[5mC]*eT*eG*e[5mC]*eA*eA*e[5mC]*eA*e[5mC]*eA*eA*eG*eA*e[5mC]*eA*e[5mC]*eG*eA) [compound 327958] | 188 | 60 |  |
| 327945 (antisense e[5mC]*eT*eG*eT*eT*e[5mC]*e[5mC]*eT*eG*e[5mC]*eT*eG*eA*eA*e[5mC]*eT*eG*eA*eG*e[5mC]*e[5mC]*eA) [compound 327945] | 202 | 68 |  |
| 327924 (antisense eG*e[5mC]*eA*eA*eG*e[5mC]*e[5mC]*e[5mC]*eA*eG*eA*e[5mC]*e[5mC]*eG*e[5mC]*eA*eA*eA*eA*eA*eG) [compound 327924] | 171 | 88 |  |
| 327963 (antisense eA*eA*e[5mC]*e[5mC]*eT*eA*eT*e[5mC]*e[5mC]*eT*eG*eA*eA*eT*eT*eA*e[5mC]*eT*eT*eG*eA*eA) [compound 327963] | 224 | 23 |  |
| 327935 (antisense e[5mC]*eT*eA*e[5mC]*e[5mC]*eT*eG*e[5mC]*eA*e[5mC]*eT*eA*eT*eA*eA*eG*e[5mC]*eA*e[5mC]*eT*eT*eT*eA) [compound 327935] | 254 | 24 |  |
| 327961 (antisense eG*eG*eG*eG*eT*eA*eT*eT*eT*eG*eA*e[5mC]*eA*eA*eA*e[5mC]*eT*eG*eA*e[5mC]*eA) [compound 327961] | 203 | 10 |  |
| 129690 (antisense TTAGAATACGTCGCGTTATG; sugars from the 5' end e5 d10 e5, all phosphorothioate, methylation of C not given here) [compound 129690] | 73 | 129 | IL-12 mRNA expression, % UTC (75 nM, +IFN): 66 % UTC; IL-12 mRNA expression, % UTC (75 nM, −IFN): 114 % UTC; IL-12 mRNA expression, % UTC (150 nM, +IFN): 54 % UTC; IL-12 mRNA expression, % UTC (150 nM, −IFN): 109 % UTC; IL-12 mRNA expression, % UTC (300 nM, +IFN): 66 % UTC; IL-12 mRNA expression, % UTC (300 nM, −IFN): 101 % UTC; IL-12 mRNA expression, % UTC (600 nM, +IFN): 81 % UTC; IL-12 mRNA expression, % UTC (600 nM, −IFN): 128 % UTC |
| 327936 (antisense eA*e[5mC]*eA*eG*e[5mC]*eT*eG*eG*eT*eT*eG*eA*eA*eG*eG*eG*eG*eA*e[5mC]*e[5mC]*eA*eA) [compound 327936] | 221 | 55 |  |
| 327940 (antisense eG*eA*eA*e[5mC]*eA*eG*eG*eT*eA*eG*eT*e[5mC]*eT*eG*eA*eA*e[5mC]*eA*e[5mC]*eT*eG*eG*eG) [compound 327940] | 228 | 107 |  |
